Test results published in ChEMBL document CHEMBL3994622, “Design and synthesis of new RAF kinase-inhibiting antiproliferative quinoline derivatives. Part 2: Diarylurea derivatives” (Eur J Med Chem, 2017).

Columns and labels:
Assay type in all cases: functional
HOP-92 [1] = experiment: Growth inhibition of human HOP92 cells incubated for 48 hrs by sulforhodamine B assay; conditions: HOP-92, 48 h
CCRF-CEM [2] = experiment: Growth inhibition of human CCRF-CEM cells incubated for 48 hrs by sulforhodamine B assay; conditions: for CC50: read-out: LC50 (the source's name)
NCI-H23 = experiment: Growth inhibition of human NCI-H23 cells assessed as cell growth at 10 uM incubated for 48 hrs by sulforhodamine B assay relative to control; conditions: NCI-H23, 48 h, read-out: Activity
SR = experiment: Growth inhibition of human SR cells incubated for 48 hrs by sulforhodamine B assay; conditions: for CC50: read-out: LC50 (the source's name)
SK-MEL-5 = experiment: Growth inhibition of human SK-MEL-5 cells assessed as cell growth at 10 uM incubated for 48 hrs by sulforhodamine B assay relative to control; conditions: SK-MEL-5, 48 h, read-out: Activity
SK-OV-3 = experiment: Growth inhibition of human SKOV3 cells assessed as cell growth at 10 uM incubated for 48 hrs by sulforhodamine B assay relative to control; conditions: SK-OV-3, 48 h, read-out: Activity
Malme-3M = experiment: Growth inhibition of human MALME-3M cells assessed as cell growth at 10 uM incubated for 48 hrs by sulforhodamine B assay relative to control; conditions: read-out: Activity
786-0 = experiment: Growth inhibition of human 786-0 cells assessed as cell growth at 10 uM incubated for 48 hrs by sulforhodamine B assay relative to control; conditions: 786-0, 48 h, read-out: Activity
RPMI-8226 = experiment: Growth inhibition of human RPMI8226 cells assessed as cell growth at 10 uM incubated for 48 hrs by sulforhodamine B assay relative to control; conditions: RPMI-8226, 48 h, read-out: Activity
HCT-116 = experiment: Growth inhibition of human HCT116 cells assessed as cell growth at 10 uM incubated for 48 hrs by sulforhodamine B assay relative to control; conditions: HCT-116, 48 h, read-out: Activity
PC-3 = experiment: Growth inhibition of human PC3 cells assessed as cell growth at 10 uM incubated for 48 hrs by sulforhodamine B assay relative to control; conditions: PC-3, 48 h, read-out: Activity
COLO 205 = experiment: Growth inhibition of human COLO205 cells incubated for 48 hrs by sulforhodamine B assay; conditions: COLO 205, 48 h; for CC50: read-out: LC50 (the source's name)
SW-620 = experiment: Growth inhibition of human SW620 cells assessed as cell growth at 10 uM incubated for 48 hrs by sulforhodamine B assay relative to control; conditions: SW-620, 48 h, read-out: Activity
SF-539 = experiment: Growth inhibition of human SF539 cells assessed as cell growth at 10 uM incubated for 48 hrs by sulforhodamine B assay relative to control; conditions: SF-539, 48 h, read-out: Activity
RXF 393 = experiment: Growth inhibition of human RXF393 cells assessed as cell growth at 10 uM incubated for 48 hrs by sulforhodamine B assay relative to control; conditions: RXF 393, 48 h, read-out: Activity
UO-31 = experiment: Growth inhibition of human UO31 cells assessed as cell growth at 10 uM incubated for 48 hrs by sulforhodamine B assay relative to control; conditions: UO-31, 48 h, read-out: Activity
M14 = experiment: Growth inhibition of human M14 cells incubated for 48 hrs by sulforhodamine B assay; conditions: M14, 48 h; for CC50: read-out: LC50 (the source's name)
CCRF-CEM [3] = experiment: Growth inhibition of human CCRF-CEM cells assessed as cell growth at 10 uM incubated for 48 hrs by sulforhodamine B assay relative to control; conditions: read-out: Activity
OVCAR-3 = experiment: Growth inhibition of human OVCAR3 cells assessed as cell growth at 10 uM incubated for 48 hrs by sulforhodamine B assay relative to control; conditions: OVCAR-3, 48 h, read-out: Activity
KM12 = experiment: Growth inhibition of human KM12 cells assessed as cell growth at 10 uM incubated for 48 hrs by sulforhodamine B assay relative to control; conditions: KM12, 48 h, read-out: Activity
HOP-62 [4] = experiment: Growth inhibition of human HOP62 cells assessed as cell growth at 10 uM incubated for 48 hrs by sulforhodamine B assay relative to control; conditions: HOP-62, 48 h, read-out: Activity
SK-MEL-28 = experiment: Growth inhibition of human SK-MEL-28 cells assessed as cell growth at 10 uM incubated for 48 hrs by sulforhodamine B assay relative to control; conditions: SK-MEL-28, 48 h, read-out: Activity
NCI/ADR-RES = experiment: Growth inhibition of human NCI/ADR-RES cells assessed as cell growth at 10 uM incubated for 48 hrs by sulforhodamine B assay relative to control; conditions: read-out: Activity
OVCAR-8 = experiment: Growth inhibition of human OVCAR8 cells assessed as cell growth at 10 uM incubated for 48 hrs by sulforhodamine B assay relative to control; conditions: OVCAR-8, 48 h, read-out: Activity
U-251 = experiment: Growth inhibition of human U251 cells assessed as cell growth at 10 uM incubated for 48 hrs by sulforhodamine B assay relative to control; conditions: U-251, 48 h, read-out: Activity
HL-60(TB) [5] = experiment: Growth inhibition of human HL-60(TB) cells incubated for 48 hrs by sulforhodamine B assay; conditions: HL-60, 48 h; for CC50: read-out: LC50 (the source's name)
T47D = experiment: Growth inhibition of human T47D cells incubated for 48 hrs by sulforhodamine B assay; conditions: for CC50: read-out: LC50 (the source's name)
MDA-MB-231 = experiment: Growth inhibition of human MDA-MB-231 cells assessed as cell growth at 10 uM incubated for 48 hrs by sulforhodamine B assay relative to control; conditions: MDA-MB-231, 48 h, read-out: Activity
SN12C = experiment: Growth inhibition of human SN12C cells assessed as cell growth at 10 uM incubated for 48 hrs by sulforhodamine B assay relative to control; conditions: read-out: Activity
HOP-62 [6] = experiment: Growth inhibition of human HOP62 cells incubated for 48 hrs by sulforhodamine B assay; conditions: HOP-62, 48 h; for CC50: read-out: LC50 (the source's name)
HL-60(TB) [7] = experiment: Growth inhibition of human HL-60(TB) cells assessed as cell growth at 10 uM incubated for 48 hrs by sulforhodamine B assay relative to control; conditions: HL-60, 48 h, read-out: Activity
HOP-92 [8] = experiment: Growth inhibition of human HOP92 cells assessed as cell growth at 10 uM incubated for 48 hrs by sulforhodamine B assay relative to control; conditions: HOP-92, 48 h, read-out: Activity
MDA-MB-468 = experiment: Growth inhibition of human MDA-MB-468 cells assessed as cell growth at 10 uM incubated for 48 hrs by sulforhodamine B assay relative to control; conditions: MDA-MB-468, 48 h, read-out: Activity

## COc1cc2cc(Oc3ccc(NC(=O)Nc4ccc(Cl)c(Cl)c4)cc3)c(C)nc2cc1OC
HOP-92 [1]
  GI50: 2.04 µM
  LC50: 14.2 µM
  TGI: 4.88 µM
CCRF-CEM [2]
  GI50: 2.38 µM
  TGI: 14 µM
  CC50: > 100 µM
NCI-H23
  growth at 10 µM: 8.26%
SR
  GI50: 3.1 µM
  TGI: 10.3 µM
  CC50: > 100 µM
SK-MEL-5
  growth at 10 µM: -35%
SK-OV-3
  growth at 10 µM: 28.6%
Malme-3M
  growth at 10 µM: 14.9%
786-0
  growth at 10 µM: 20.3%
RPMI-8226
  growth at 10 µM: 4.2%
HCT-116
  growth at 10 µM: 10.5%
PC-3
  growth at 10 µM: 4.12%
COLO 205
  GI50: 2.75 µM
  TGI: 6.5 µM
  CC50: 21.5 µM
SW-620
  growth at 10 µM: 23.4%
SF-539
  growth at 10 µM: 38.5%
RXF 393
  growth at 10 µM: 22.3%
UO-31
  growth at 10 µM: 3.69%
M14
  GI50: 2.56 µM
  TGI: 10.5 µM
  CC50: 34.7 µM
CCRF-CEM [3]
  growth at 10 µM: 13.3%
OVCAR-3
  growth at 10 µM: -10%
KM12
  growth at 10 µM: 13.9%
HOP-62 [4]
  growth at 10 µM: 55.2%
SK-MEL-28
  growth at 10 µM: 44.6%
NCI/ADR-RES
  growth at 10 µM: 17.1%
OVCAR-8
  growth at 10 µM: 15%
U-251
  growth at 10 µM: -32.3%
HL-60(TB) [5]
  GI50: 2.76 µM
  TGI: 6.75 µM
  CC50: > 100 µM
T47D
  GI50: 2.7 µM
  TGI: 10.1 µM
  CC50: 84.7 µM
MDA-MB-231
  growth at 10 µM: 47.8%
SN12C
  growth at 10 µM: 22.1%
HOP-62 [6]
  GI50: 3.55 µM
  TGI: 11.9 µM
  CC50: 34.4 µM
HL-60(TB) [7]
  growth at 10 µM: 9.64%
HOP-92 [8]
  growth at 10 µM: -9.31%
MDA-MB-468
  growth at 10 µM: -16.7%

## COc1cc2cc(Oc3ccc(NC(=O)Nc4cccc(C(F)(F)F)c4)cc3)c(C)nc2cc1OC
HOP-92 [1]
  GI50: 1.26 µM
  LC50: 21.2 µM
  TGI: 3.96 µM
NCI-H23
  growth at 10 µM: 6.78%
SR
  GI50: 1.17 µM
  TGI: 3.33 µM
  CC50: 32 µM
SK-MEL-5
  growth at 10 µM: -86.1%
SK-OV-3
  growth at 10 µM: 3.35%
Malme-3M
  growth at 10 µM: 7.22%
786-0
  growth at 10 µM: 15.1%
RPMI-8226
  growth at 10 µM: -5.94%
HCT-116
  growth at 10 µM: 6.71%
PC-3
  growth at 10 µM: 0.08%
COLO 205
  GI50: 1.12 µM
  TGI: 2.4 µM
  CC50: 5.7 µM
SW-620
  growth at 10 µM: 17.5%
SF-539
  growth at 10 µM: 11.7%
RXF 393
  growth at 10 µM: -13.1%
UO-31
  growth at 10 µM: 11.3%
M14
  GI50: 1.67 µM
  TGI: 7.67 µM
  CC50: 35.6 µM
CCRF-CEM [3]
  growth at 10 µM: 6.41%
OVCAR-3
  growth at 10 µM: -0.54%
KM12
  growth at 10 µM: -10.2%
HOP-62 [4]
  growth at 10 µM: 25%
SK-MEL-28
  growth at 10 µM: 26.7%
NCI/ADR-RES
  growth at 10 µM: 6.98%
OVCAR-8
  growth at 10 µM: 8.32%
U-251
  growth at 10 µM: -85.7%
HL-60(TB) [5]
  GI50: 1.56 µM
  TGI: 3.91 µM
  CC50: > 50 µM
T47D
  GI50: 1.61 µM
  TGI: 6.68 µM
  CC50: > 50 µM
MDA-MB-231
  growth at 10 µM: -8.32%
SN12C
  growth at 10 µM: 17.2%
HOP-62 [6]
  GI50: 2.33 µM
  TGI: 8.44 µM
  CC50: 24.1 µM
HL-60(TB) [7]
  growth at 10 µM: -24.8%
HOP-92 [8]
  growth at 10 µM: -29.5%
MDA-MB-468
  growth at 10 µM: -32.5%

## COc1cc2cc(Oc3ccc(NC(=O)Nc4ccc(Cl)c(C(F)(F)F)c4)cc3)c(C)nc2cc1OC
HOP-92 [1]
  GI50: 0.682 µM
  LC50: 10.3 µM
  TGI: 2.05 µM
CCRF-CEM [2]
  GI50: 1.01 µM
  TGI: 3.09 µM
  CC50: > 32.5 µM
NCI-H23
  growth at 10 µM: 3.46%
SR
  GI50: 0.831 µM
  TGI: 2.65 µM
  CC50: > 32.5 µM
SK-MEL-5
  growth at 10 µM: -73.4%
SK-OV-3
  growth at 10 µM: -4.09%
Malme-3M
  growth at 10 µM: -23%
786-0
  growth at 10 µM: -21.1%
RPMI-8226
  growth at 10 µM: -26.4%
HCT-116
  growth at 10 µM: -87.3%
PC-3
  growth at 10 µM: -0.61%
COLO 205
  GI50: 0.66 µM
  TGI: 1.31 µM
  CC50: 2.59 µM
SW-620
  growth at 10 µM: 7.51%
SF-539
  growth at 10 µM: -36.2%
RXF 393
  growth at 10 µM: -33.4%
UO-31
  growth at 10 µM: -45.1%
M14
  GI50: 1.25 µM
  TGI: 5.25 µM
  CC50: 19.2 µM
CCRF-CEM [3]
  growth at 10 µM: -17.6%
OVCAR-3
  growth at 10 µM: -27.3%
KM12
  growth at 10 µM: -16.4%
HOP-62 [4]
  growth at 10 µM: -51%
SK-MEL-28
  growth at 10 µM: -35.9%
NCI/ADR-RES
  growth at 10 µM: 2.01%
OVCAR-8
  growth at 10 µM: 7.34%
U-251
  growth at 10 µM: -80.4%
HL-60(TB) [5]
  GI50: 1.13 µM
  TGI: 3.12 µM
  CC50: > 32.5 µM
T47D
  GI50: 1.21 µM
  TGI: 7.9 µM
  CC50: > 32.5 µM
MDA-MB-231
  growth at 10 µM: -50.6%
SN12C
  growth at 10 µM: 13.2%
HOP-62 [6]
  GI50: 1.3 µM
  TGI: 5.32 µM
  CC50: 13.7 µM
HL-60(TB) [7]
  growth at 10 µM: -40.6%
HOP-92 [8]
  growth at 10 µM: -22.3%
MDA-MB-468
  growth at 10 µM: -42.7%
